Results published in ChEMBL document CHEMBL3286217, “Structure-based efforts to optimize a non-β-lactam inhibitor of AmpC β-lactamase” (Bioorg Med Chem, 2014).

What was measured:
[1] = Reversible competitive inhibition of beta-lactamase AmpC (unknown origin)
[2] = Inhibition of beta-lactamase AmpC (unknown origin) by UV-Vis spectrophotometry
[3] = Competitive inhibition of beta-lactamase AmpC (unknown origin) by Lineweaver-Burk plot analysis

Structure (SMILES)	Ki [2] [µM]	further results
O=C(O)c1sccc1S(=O)(=O)Nc1ccc(Cl)cc1	–	Ki [1]: 26 µM
O=C(O)c1ccc(CNS(=O)(=O)c2ccsc2C(=O)O)cc1	18	–
O=C(O)c1ccc(CCNS(=O)(=O)c2ccsc2C(=O)O)cc1	–	Ki [3]: 26 µM
O=C(O)c1ccc(CCCNS(=O)(=O)c2ccsc2C(=O)O)cc1	19	–

More lines, main results first:

Ki [2] [µM]	Structure (SMILES)	further results
1.7	O=C(O)c1ccc(NS(=O)(=O)c2ccsc2C(=O)O)cc1	–
58	Cc1ccc(CNS(=O)(=O)c2ccsc2C(=O)O)cc1	–
112	O=C(O)c1sccc1S(=O)(=O)NCc1ccc(Cl)cc1	–
